Patent publication US10689383B2, “Optionally fused heterocyclyl-substituted derivatives of pyrimidine useful for the treatment of inflammatory, metabolic, oncologic and autoimmune diseases” (NUEVOLUTION A/S, priority 2014, dated 2020)

Tests used:
[1] = target: T1, human RORγt (Ligand Binding Domain) (Homo sapiens, UniProt P51449); experiment: Fluorescence Polarization (FP) Assay; details: Fluorescence Polarization (FP) Assay; values given as upper bounds of activity ranges; read-out: FP activity range
T1 construct: purchased Crelux (Planegg, Germany) batch no PC5032-1
T1 sequence (P51449 269-508 limits assumed): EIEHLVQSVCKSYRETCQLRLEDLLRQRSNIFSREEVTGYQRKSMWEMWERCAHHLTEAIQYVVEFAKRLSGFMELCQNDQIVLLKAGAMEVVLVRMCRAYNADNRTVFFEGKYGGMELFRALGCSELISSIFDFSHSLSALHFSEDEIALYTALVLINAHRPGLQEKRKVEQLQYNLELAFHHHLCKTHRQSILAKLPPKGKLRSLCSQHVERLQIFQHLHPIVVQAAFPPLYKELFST
Procedure, shortened: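 Binding to the ligand pocket followed by fluorescence polarization with a TAMRA-tagged RORγt ligand probe of 910 g/mole. Negative control wells received DMSO only.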

[2] = target: T2, yeast Gal4-DNA binding domain fused to the ligand binding domain of human RORγ (Homo sapiens, UniProt P51449); experiment: RORγ Reporter Assay (Gal4); format: cell-based; details: values given as lower bounds of ranges; for Gal4 activity range @ 0.1 μM (% inhibition): RORγ Reporter Assay (Gal4) at 0.1 μM; for Gal4 activity range @ 1 μM (% inhibition): RORγ Reporter Assay (Gal4) at 1 μM
T2 construct: host or cells: HEK293t
T2 sequence (P51449 269-508 limits assumed): T1 sequence (P51449 269-508 limits assumed)
Procedure, shortened: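 Compound at final 1,000 or 100 nM (0.1% DMSO, triplicate) was added to the transfected HEK293t cells carrying a Gal4-UAS luciferase reporter for 24 h at 37 °C, 10% charcoal-stripped FBS. Activity reduction expressed as percent of vehicle-only luciferase signal.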

| Structure (SMILES) | IC50 [1] [nM] | Gal4 activity range @ 0.1 μM (% inhibition) [2] [% inhibition] | Gal4 activity range @ 1 μM (% inhibition) [2] [% inhibition] |
| --- | --- | --- | --- |
| NC(=O)Cc1ccc(CN2CCc3c2ncnc3N2CCC[C@@H]2c2ccc(C(F)(F)F)cc2)cc1 [Example 265, 2-[4-[[4-[(2R)-2-[4-(trifluoromethyl)phenyl]pyrrolidin-1-yl]-5,6-dihydropyrrolo[2,3-d]pyrimidin-7-yl]methyl]phenyl]acetamide] | < 500 | >80 | >80 |
| CS(=O)(=O)N1CCC(F)(CNc2ncnc(N3CCOC[C@@H]3c3ccc(C(F)(F)F)cc3)c2F)CC1 [Example 266, 5-fluoro-N-[(4-fluoro-1-methylsulfonyl-4-piperidyl)methyl]-6-[(3S)-3-[4-(trifluoromethyl)phenyl]morpholin-4-yl]pyrimidin-4-amine] | < 500 | >80 | >80 |
| CS(=O)(=O)N[C@H]1CC[C@H](CNc2ncnc(N3CCOC[C@@H]3c3ccc(OC(F)(F)F)cc3)c2F)CC1 [Example 267, N-[4-[[[5-fluoro-6-[(3S)-3-[4-(trifluoromethoxy)phenyl]morpholin-4-yl]pyrimidin-4-yl]amino]methyl]cyclohexyl] methanesulfonamide] | < 500 | >80 | >80 |
| O=S(=O)(NC1CC1)c1ccc(CNc2ncnc(N3CCOCC3c3ccccc3)c2F)cc1 (stereo not drawn) [Example 273, N-cyclopropyl-4-[[[5-fluoro-6-(3-phenylmorpholin-4-yl)pyrimidin-4-yl]amino]methyl] benzenesulfonamide] | < 500 | >20 | >80 |
| CS(=O)(=O)N1CCC(CNc2ncnc(N3CCOCC3c3ccccc3)c2F)CC1 (stereo not drawn) [Example 274, 5-fluoro-N-[(1-methylsulfonyl-4-piperidyl)methyl]-6-(3-phenylmorpholin-4-yl)pyrimidin-4-amine] | < 2000 | >20 | >50 |
| O=C(O)Cc1ccc(CNc2ncnc(N3CCOCC3c3ccccc3)c2F)cc1 (stereo not drawn) [Example 276, 2-[4-[[[5-fluoro-6-(3-phenylmorpholin-4-yl)pyrimidin-4-yl]amino]methyl]phenyl]acetic acid] | < 2000 | >0 | >20 |
| NC(=O)Cc1ccc(CNc2ncnc(N3CC(=O)CC3c3ccc(C(F)(F)F)cc3)c2F)cc1 (stereo not drawn) [Example 280, 2-[4-[[[5-fluoro-6-[4-oxo-2-[4-(trifluoromethyl)phenyl]pyrrolidin-1-yl]pyrimidin-4-yl]amino]methyl]phenyl]acetamide] | < 500 | >0 | >20 |
| O=C(O)Cc1ccc(CNc2ncnc(N3CCOCC3c3ccccc3)c2F)s1 (stereo not drawn) [Example 282, 2-[5-[[[5-fluoro-6-(3-phenylmorpholin-4-yl)pyrimidin-4-yl]amino]methyl]-2-thienyl]acetic acid] | < 10000 | >0 | >0 |
| NC(=O)Cc1ccc(CNc2ncnc(N3CCOCC3c3ccccc3)c2F)s1 (stereo not drawn) [Example 283, 2-[5-[[[5-fluoro-6-(3-phenylmorpholin-4-yl)pyrimidin-4-yl]amino]methyl]-2-thienyl]acetamide] | < 1000 | >0 | >20 |
| NC(=O)Cc1ccc(Cn2ccc3c(N4CCOCC4c4ccccc4)ncnc32)cc1 (stereo not drawn) [Example 284, 2-[4-[[4-(3-phenylmorpholin-4-yl)pyrrolo[2,3-d]pyrimidin-7-yl]methyl]phenyl]acetamide] | < 500 | >20 | >50 |
| O=S(=O)(CC(F)(F)F)N[C@H]1CC[C@H](CNc2ncnc(N3CCOC[C@@H]3c3ccc(OC(F)(F)F)cc3)c2F)CC1 [Example 285, 2,2,2-trifluoro-N-[4-[[[5-fluoro-6-[(3S)-3-[4-(trifluoromethoxy)phenyl]morpholin-4-yl]pyrimidin-4-yl]amino]methyl]cyclohexyl]ethane sulfonamide] | < 500 | >0 | >20 |
| CNC(=O)C1(CNc2ncnc(N3CCOC[C@@H]3c3ccc(C(F)(F)F)cc3)c2F)CCOCC1 [Example 286, 4-[[[5-fluoro-6-[(3S)-3-[4-(trifluoromethyl)phenyl]morpholin-4-yl]pyrimidin-4-yl]amino]methyl]-N-methyl-tetrahydropyran-4-carboxamide] | < 2000 | >20 | >20 |
| N#CC[C@H]1CC[C@H](CNc2ncnc(N3CCOC[C@@H]3c3ccc(C(F)(F)F)cc3)c2F)CC1 [Example 287, 2-[4-[[[5-fluoro-6-[(3S)-3-[4-(trifluoromethyl)phenyl]morpholin-4-yl]pyrimidin-4-yl]amino]methyl]cyclohexyl] acetonitrile] | < 500 | >50 | >80 |
| Fc1c(NC[C@H]2CC[C@H](Cc3nnn[nH]3)CC2)ncnc1N1CCOC[C@@H]1c1ccc(C(F)(F)F)cc1 [Example 288, 5-fluoro-N-[[4-(1H-tetrazol-5-ylmethyl)cyclohexyl]methyl]-6-[(3S)-3-[4-(trifluoromethyl)phenyl]morpholin-4-yl]pyrimidin-4-amine] | < 500 | >80 | >80 |
| CS(=O)(=O)N1CCC(Cn2ccc3c(N4CCOC[C@@H]4c4ccc(OC(F)(F)F)cc4)ncnc32)CC1 [Example 290, (3S)-4-[7-[(1-methylsulfonyl-4-piperidyl)methyl]pyrrolo[2,3-d]pyrimidin-4-yl]-3-[4-(trifluoromethoxy)phenyl] morpholine] | < 500 | >50 | >80 |
| O=S(=O)(Nc1ccc(CNc2ncnc(N3CCOC[C@@H]3c3ccc(C(F)(F)F)cc3)c2F)cc1)C(F)(F)F [Example 291, 1,1,1-trifluoro-N-[4-[[[5-fluoro-6-[(3S)-3-[4-(trifluoromethyl)phenyl]morpholin-4-yl]pyrimidin-4-yl]amino]methyl]phenyl] methanesulfonamide] | < 1000 | >0 | >50 |
| N#CNC(=O)Cc1ccc(CNc2ncnc(N3CCOCC3c3ccc(C(F)(F)F)cc3)c2F)cc1 (stereo not drawn) [Example 292, N-cyano-2-[4-[[[5-fluoro-6-[3-[4-(trifluoromethyl)phenyl]morpholin-4-yl]pyrimidin-4-yl]amino]methyl]phenyl]acetamide] | < 500 | >0 | >20 |
| CC1(CNc2ncnc(N3CCOC[C@@H]3c3ccc(C(F)(F)F)cc3)c2F)CCCCC1O (stereo partly drawn) [Example 295, 2-[[[5-fluoro-6-[(3S)-3-[4-(trifluoromethyl)phenyl]morpholin-4-yl]pyrimidin-4-yl]amino]methyl]-2-methyl-cyclohexanol] | < 500 | >20 | >80 |
| NC(=O)Cc1ccc(CNc2ncnc(N3CCCC3c3ccc4c(c3)OCO4)c2F)cc1 (stereo not drawn) [Example 299, 2-[4-[[[6-[2-(1,3-benzodioxol-5-yl)pyrrolidin-1-yl]-5-fluoro-pyrimidin-4-yl]amino]methyl]phenyl]acetamide] | < 1000 | >0 | >80 |
| NC(=O)Cc1ccc(CNc2ncnc(N3CCCC3c3ccc(O)cc3)c2F)cc1 (stereo not drawn) [Example 300, 2-[4-[[[5-fluoro-6-[2-(4-hydroxyphenyl)pyrrolidin-1-yl]pyrimidin-4-yl]amino]methyl]phenyl]acetamide] | < 10000 | >20 | >20 |
| CCOc1ccc(C2CCCN2c2ncnc(NCc3ccc(CC(N)=O)cc3)c2F)cc1 (stereo not drawn) [Example 301, 2-[4-[[[6-[2-(4-ethoxyphenyl)pyrrolidin-1-yl]-5-fluoro-pyrimidin-4-yl]amino]methyl]phenyl]acetamide] | < 500 | >50 | >80 |
| Cc1ccc(C2CCCN2c2ncnc(NCc3ccc(CC(N)=O)cc3)c2F)cc1 (stereo not drawn) [Example 302, 2-[4-[[[5-fluoro-6-[2-(p-tolyl)pyrrolidin-1-yl]pyrimidin-4-yl]amino]methyl]phenyl]acetamide] | < 500 | >20 | >50 |
